Target: T1, nitrobenzene nitroreductase (Ectopseudomonas oleovorans, UniProt Q6DLR9)
T1 construct: The fractions containing nitrobenzene nitroreductase activity, which eluted in the linear gradient between 65 to 80 ml, were pooled; made in house; host or cells: Pseudomonas pseudoalcaligenes JS45, the native organism (not recombinant); Crude extract fractionated on Q-Sepharose Fast Flow
Experiment: Nitrobenzene nitroreductase activity on nitroarene substrates (NADPH oxidation)
Assay type: biochemical, Pseudomonas pseudoalcaligenes strain JS45
Details: partially purified enzyme; compound as substrate
Method: The crude extract was loaded on a 100 ml Q-Sepharose Fast Flow column (Pharmacia, XK-26) previously equilibrated with 150 mM KCl in 20 mM phosphate buffer. Proteins were eluted with a step gradient that began with 100 ml buffer containing KCl (150 mM) and then a linear gradient of 150 to 300 mM KCl at a flow rate of 2.5 ml/min.
A high performance liquid chromatograph (HPLC) equipped with a diode array detector monitoring A210 (Hewlett-Packard, Model 1040M, Wilmington Del.) was used to identify and quantitate the nitroarenes, intermediates and corresponding aminophenols. […] For the whole cell transformation experiments, the nitroarenes and products were separated on an ABZ column (Supelco, Bellefonte, Pa.) using acetonitrile/water as solvent system. Capillary gas chromatography/mass spectral (GC/MS) analyses were performed splitless on a Hewlett-Packard GC (model 5890) equipped with a mass selective detector (model 5971) and a DB-5 column (J & W Scientific, Folsom, Calif., 30 m long×0.25 mm I.D.×1.0 μm film thickness). The aminophenol derivatized with BSTFA was analyzed by GC/MS using the temperature program beginning at 100° C. and increased 10° C./min to 280° C. The n-butylboronic acid derivative was analyzed using an initial temperature of 50° C. increasing 20° C./min to 340°C.

T1 sequence (Q6DLR9 2-227): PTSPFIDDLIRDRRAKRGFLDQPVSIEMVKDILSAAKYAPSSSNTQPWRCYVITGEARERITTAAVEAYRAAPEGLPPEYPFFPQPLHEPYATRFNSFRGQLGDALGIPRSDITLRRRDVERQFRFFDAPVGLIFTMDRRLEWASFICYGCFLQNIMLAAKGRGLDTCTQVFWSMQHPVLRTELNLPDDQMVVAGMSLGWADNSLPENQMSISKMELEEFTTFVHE

Compound	rate of transformation by partially purified nitrobenzene nitroreductase [μmol/min/mg protein]
O=[N+]([O-])c1ccc(Oc2ccccc2)cc1 [4-nitrobiphenyl ether]	8.1
O=[N+]([O-])c1ccccc1 [nitrobenzene]	7.9

Source: patent US6797497B1, “Biological process for the production of ortho-aminophenols from nitroaromatic compounds using mutase” (The United States of America as represented by the …, priority 2001, dated 2004)
